Values joined by “and” are separate entries in the source; they are usually repeats but may differ in a detail not shown here. Equal values may be shown once. Where a SMILES comes first, the peptide text is derived from it. [ ]: non-standard residue; d: D form. Hyp = O=C(O)[C@@H]1C[C@@H](O)CN1
Tested on: GM-CSF
Assay: Example 9 Luminex, LPS hPBMCs: GM-CSF
Assay type: cell-based, human
Method: Treatment Human PBMCs were pretreated with YY-101, YDE-011 and YDE-043 or reference compound; Xiidra® at various concentration (ranging from 1 nM to 100 uM) for 2 h before stimulation. An equal volume of 0.5% DMSO was used as a vehicle control. Then, the cells were treated with LPS at 5 ug/ml. The supernatants from treated cells were harvested at 24 h and placed in a 96 well for Luminex cytokine & chemokine profiling using a Luminex 200 multiplex assay (Luminex; R&D system, USA).
The main study arm with triplicate wells per group in a 24-well plate: • 1. Blank • 2. PBMC: 0.5% DMSO • 3. PBMC+LPS (5 ug/ml) • 4. PBMC+YY-101 100 uM • 5. PBMC+YY-101 10 uM • 6. PBMC+YY-101 1 uM • 7. PBMC+YY-101 0.1 uM • 8. PBMC+YY-101 0.01 uM • 9. PBMC+LPS (5 ug/ml)+Xiidra®100 uM • 10. PBMC+LPS (5 ug/ml)+Xiidra® 10 uM • 11. PBMC+LPS (5 ug/ml)+Xiidra® 1 uM • 12. PBMC+LPS (5 ug/ml)+Xiidra®0.1 uM • 13. PBMC+LPS (5 ug/ml)+Xiidra®0.01 uM • 14. PBMC+LPS (5 ug/ml)+Xiidra®0.001 uM • 15. PBMC+LPS (5 ug/ml)+YY-101 100 uM • 16. PBMC+LPS (5 ug/ml)+YY-101 10 uM • 17. PBMC+LPS (5 ug/ml)+YY-101 1 uM • 18. PBMC+LPS (5 ug/ml)+YY-101 0.1 uM • 19. PBMC+LPS (5 ug/ml)+YY-101 0.01 uM • 20. PBMC+LPS (5 ug/ml)+YY-101 0.001 uM • 21. PBMC+LPS (5 ug/ml)+YDE-011 100 uM • 22. PBMC+LPS (5 ug/ml)+YDE-011 10 uM • 23. PBMC+LPS (5 ug/ml)+YDE-011 1 uM • 24. PBMC+LPS (5 ug/ml)+YDE-011 0.1 uM • 25. PBMC+LPS (5 ug/ml)+YDE-011 0.01 uM • 26. PBMC+LPS (5 ug/ml)+YDE-011 0.001 uM • 27. PBMC+LPS (5 ug/ml)+YDE-043 100 uM • 28. PBMC+LPS (5 ug/ml)+YDE-043 10 uM • 29. PBMC+LPS (5 ug/ml)+YDE-043 1 uM • 30. PBMC+LPS (5 ug/ml)+YDE-043 0.1 uM • 31. PBMC+LPS (5 ug/ml)+YDE-043 0.01 uM • 32. PBMC+LPS (5 ug/ml)+YDE-043 0.001 uM
Multiplex assay was used to measure 30 cytokines and chemokines. The 1:2, 1:10 and 1:200 diluted cell supernatant and serial dilution of the standard were dispensed into a 96 well plate at 50 ul/well. Then, the pre-mixed cocktail of antibody-coated magnetic beads was dispensed at 50 ul/well and incubated at room temperature for 2 h in a horizontal orbital microplate shaker at 800±500 rpm. The beads were washed using a magnetic device to prevent loss. The biotin-antibody was dispensed in 50 ul of each well and incubated at room temperature for 1 h in a shaker at 800±500 rpm. After washing, streptavidin-PE was added at 50 ul/well and incubated at room temperature for 30 min in a shaker under the same conditions. Finally, after washing, wash buffer (100 ul/well) was added to the plate and incubated in a shaker for 2 min. The Luminex™ 200 setting were set according to the manufacturer's protocol. The data was calculated with a standard five-parameter logistic nonlinear regression analysis of the data (xPonent software 4.2, USA). The levels of cytokine/chemokine are normalized to the live cell counts (1×10^5 cells/mL) and presented as concentrations per mL (pg/mL or ng/mL).

[1] = PBMC + LPS(5 ug/ml) + test article 0.001 uM, Mean
[2] = PBMC + LPS(5 ug/ml) + test article 0.001 uM, single replicates
[3] = PBMC + LPS(5 ug/ml) + test article 0.01 uM, Mean
[4] = PBMC + LPS(5 ug/ml) + test article 0.01 uM, single replicates
[5] = PBMC + LPS(5 ug/ml) + test article 0.1 uM, Mean
[6] = PBMC + LPS(5 ug/ml) + test article 0.1 uM, single replicates
[7] = PBMC + LPS(5 ug/ml) + test article 1 uM, Mean
[8] = PBMC + LPS(5 ug/ml) + test article 1 uM, single replicates
[9] = PBMC + LPS(5 ug/ml) + test article 10 uM, Mean
[10] = PBMC + LPS(5 ug/ml) + test article 10 uM, single replicates
[11] = PBMC + LPS(5 ug/ml) + test article 100 uM, Mean
[12] = PBMC + LPS(5 ug/ml) + test article 100 uM, single replicates
[13] = PBMC + test article 0.01 uM, no LPS, Mean
[14] = PBMC + test article 0.01 uM, no LPS, single replicates
[15] = PBMC + test article 0.1 uM, no LPS, Mean
[16] = PBMC + test article 0.1 uM, no LPS, single replicates
[17] = PBMC + test article 1 uM, no LPS, Mean
[18] = PBMC + test article 1 uM, no LPS, single replicates
[19] = PBMC + test article 10 uM, no LPS, Mean
[20] = PBMC + test article 10 uM, no LPS, single replicates
[21] = PBMC + test article 100 uM, no LPS, Mean
[22] = PBMC + test article 100 uM, no LPS, single replicates

## CC(C)C[C@H](NC(=O)CNC(=O)[C@H](CC(=O)O)NC(=O)[C@H](CCC(N)=O)NC(=O)CNC(=O)[C@@H]1C[C@@H](O)CN1)C(=O)N[C@@H](C)C(=O)NCC(=O)N1CCC[C@H]1C(=O)N[C@@H](CCCCN)C(=O)O [YY-101] (H-[Hyp]GQDGLAGPK-OH; N-terminus and C-terminus assumed)
[1]
  GM-CSF Concentration: 159.8 pg/mL
  GM-CSF conc/live cell: 24.7 pg/10^5
[2]
  GM-CSF Concentration: 138.9 pg/mL and 160.4 pg/mL and 180.1 pg/mL
  GM-CSF conc/live cell: 24.4 pg/10^5 and 22.6 pg/10^5 and 27.3 pg/10^5
[3]
  GM-CSF Concentration: 159.0 pg/mL
  GM-CSF conc/live cell: 25.8 pg/10^5
[4]
  GM-CSF Concentration: 164.4 pg/mL and 159.6 pg/mL and 153.1 pg/mL
  GM-CSF conc/live cell: 25.7 pg/10^5 and 26.6 pg/10^5 and 25.1 pg/10^5
[5]
  GM-CSF Concentration: 139.7 pg/mL
  GM-CSF conc/live cell: 23.9 pg/10^5
[6]
  GM-CSF Concentration: 150.7 pg/mL and 135.6 pg/mL and 132.7 pg/mL
  GM-CSF conc/live cell: 24.3 pg/10^5 and 26.1 pg/10^5 and 21.4 pg/10^5
[7]
  GM-CSF Concentration: 141.2 pg/mL
  GM-CSF conc/live cell: 21.7 pg/10^5
[8]
  GM-CSF Concentration: 137.2 pg/mL and 133.1 pg/mL and 153.1 pg/mL
  GM-CSF conc/live cell: 21.8 pg/10^5 and 18.8 pg/10^5 and 24.7 pg/10^5
[9]
  GM-CSF Concentration: 148.1 pg/mL
  GM-CSF conc/live cell: 22.5 pg/10^5
[10]
  GM-CSF Concentration: 153.1 pg/mL and 143.8 pg/mL and 147.4 pg/mL
  GM-CSF conc/live cell: 25.5 pg/10^5 and 22.5 pg/10^5 and 19.4 pg/10^5
[11]
  GM-CSF Concentration: 224.0 pg/mL
  GM-CSF conc/live cell: 38.7 pg/10^5
[12]
  GM-CSF Concentration: 239.6 pg/ml and 216.3 pg/ml (2×)
  GM-CSF conc/live cell: 38.0 pg/10^5 and 34.9 pg/10^5 and 43.3 pg/10^5
[13]
  GM-CSF Concentration: 5.8 pg/mL
  GM-CSF conc/live cell: 1.2 pg/10^5
[14]
  GM-CSF Concentration: 5.3 pg/mL and 6.3 pg/mL
  GM-CSF conc/live cell: 1.0 pg/10^5 and 1.3 pg/10^5
[15]
  GM-CSF Concentration: 4.4 pg/mL
  GM-CSF conc/live cell: 0.8 pg/10^5
[16]
  GM-CSF Concentration: 1.9 pg/mL and 6.9 pg/mL
  GM-CSF conc/live cell: 0.4 pg/10^5 and 1.2 pg/10^5
[17]
  GM-CSF Concentration: 4.4 pg/mL
  GM-CSF conc/live cell: 0.8 pg/10^5
[18]
  GM-CSF Concentration: 4.7 pg/mL and 4.2 pg/mL
  GM-CSF conc/live cell: 0.9 pg/10^5 and 0.8 pg/10^5
[19]
  GM-CSF Concentration: 23.5 pg/mL
  GM-CSF conc/live cell: 3.7 pg/10^5
[20]
  GM-CSF Concentration: 33.5 pg/mL and 13.5 pg/mL
  GM-CSF conc/live cell: 5.2 pg/10^5 and 2.2 pg/10^5
[21]
  GM-CSF Concentration: 11.0 pg/mL
  GM-CSF conc/live cell: 1.7 pg/10^5
[22]
  GM-CSF Concentration: 14.5 pg/mL and 7.4 pg/mL
  GM-CSF conc/live cell: 2.3 pg/10^5 and 1.1 pg/10^5
At 100.iM, LPS 5 ug/mL 24 hrs
  LPS-induced GM-CSF levels (in words): further increased

From US20230146455A1, “TREATMENT OF INFLAMMATORY DISEASES WITH PEPTIDES AND PHARMACEUTICAL COMPOSITIONS” (Yuyu Pharma, Inc., priority 2020, published 2023)
